The results in this text go back to PubChem BioAssay AID256 (DTP/NCI, 2004).

Where “and” joins values, the source holds several entries; their conditions need not be identical. Equal values may be shown once. Toxic doses and inconclusive results are not listed.

The test concerns CD2F1 mice, L1210 leukemia ip, survival T/C. Description: NCI In Vivo Anticancer Drug Screen. Data for tumor model L1210 Leukemia (intraperitoneal) in CD2F1 (CDF1) mice. The following applies: higher = longer survival. The method in brief:
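Vehicle-treated tumor-bearing mice served as controls (C) for compound-treated mice (T). Reported figure is T divided by C.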

The mark [1] stands for this setting: endpoint: mean survival time, dose: 100.0 mg/kg/injection, schedule: Q04DX003 (ip), vehicle: saline with Tween-80.
The mark [2] stands for this setting: endpoint: mean survival time, dose: 12.5 mg/kg/injection, schedule: Q04DX003 (ip), vehicle: saline with Tween-80.
The mark [3] stands for this setting: endpoint: mean survival time, dose: 25.0 mg/kg/injection, schedule: Q04DX003 (ip), vehicle: Klucel (hydroxypropylcellulose) (HPC).
Setting [4] is: endpoint: mean survival time, dose: 50.0 mg/kg/injection, schedule: Q04DX003 (ip), vehicle: Klucel (hydroxypropylcellulose) (HPC).
The mark [5] stands for this setting: endpoint: mean survival time, dose: 100.0 mg/kg/injection, schedule: Q01DX001 (ip), vehicle: saline.
The mark [6] stands for this setting: endpoint: mean survival time, dose: 100.0 mg/kg/injection, schedule: Q04DX003 (ip), vehicle: saline.
Where [7] appears, read: endpoint: mean survival time, dose: 200.0 mg/kg/injection, schedule: Q04DX003 (ip), vehicle: saline.
The mark [8] stands for this setting: endpoint: mean survival time, dose: 100.0 mg/kg/injection, schedule: Q01DX001 (ip), vehicle: saline with Tween-80.
The mark [9] stands for this setting: endpoint: mean survival time, dose: 200.0 mg/kg/injection, schedule: Q01DX001 (ip), vehicle: saline with Tween-80.
Where [10] appears, read: endpoint: mean survival time, dose: 400.0 mg/kg/injection, schedule: Q01DX001 (ip), vehicle: saline with Tween-80.
Where [11] appears, read: endpoint: mean survival time, dose: 100.0 mg/kg/injection, schedule: Q01DX009 (ip), vehicle: saline with Tween-80.
[12] abbreviates: endpoint: mean survival time, dose: 200.0 mg/kg/injection, schedule: Q01DX009 (ip), vehicle: saline with Tween-80.
The mark [13] stands for this setting: endpoint: mean survival time, dose: 400.0 mg/kg/injection, schedule: Q01DX009 (ip), vehicle: saline with Tween-80.

For the compound `CC(=O)OCC1OC(n2ncnc2CBr)C(OC(C)=O)C(OC(C)=O)C1OC(C)=O` (stereo unspecified), the T/C runs as follows: (endpoint: median survival time, dose: 12.5 mg/kg/injection, schedule: Q01DX005 (ip), vehicle: distilled water + Tween-80) 108 % of control; (endpoint: median survival time, dose: 25.0 mg/kg/injection, schedule: Q01DX005 (ip), vehicle: distilled water + Tween-80) 97 % of control; (endpoint: median survival time, dose: 50.0 mg/kg/injection, schedule: Q01DX005 (ip), vehicle: distilled water + Tween-80) 104 % of control.
With `CC(=O)OC1CCC2C3CCC4(C)C(C(C)CCCC(C)C)CCC4C3CC(C)(O)C2C1` (stereo unspecified), the T/C is, setting by setting: (endpoint: mean survival time, dose: 100.0 mg/kg/injection, schedule: Q01DX001 (sc), vehicle: steriod suspending solution) 101 % of control; (endpoint: mean survival time, dose: 200.0 mg/kg/injection, schedule: Q01DX001 (sc), vehicle: steriod suspending solution) 101 % of control; (endpoint: mean survival time, dose: 400.0 mg/kg/injection, schedule: Q01DX001 (sc), vehicle: steriod suspending solution) 101 % of control.
`C=CCOCC(O)CNCC(O)COCC=C` (stereo unspecified): under setting [1], the T/C is 100 % of control.
Regarding `O=C(O)c1ccc([N+](=O)[O-])cc1.[Ag]`, the T/C (endpoint: mean survival time, dose: 3.13 mg/kg/injection, schedule: Q01DX009 (ip), vehicle: saline with Tween-80) was 102 % of control; the T/C (endpoint: mean survival time, dose: 6.25 mg/kg/injection, schedule: Q01DX009 (ip), vehicle: saline with Tween-80) was 102 % of control; the T/C (endpoint: mean survival time, dose: 6.25 mg/kg/injection, schedule: Q04DX003 (ip), vehicle: saline with Tween-80) is 96 % of control; the T/C (endpoint: mean survival time, dose: 12.5 mg/kg/injection, schedule: Q01DX009 (ip), vehicle: saline with Tween-80) is 98 % of control; the T/C under setting [2] was 96 % of control.
For `CCOC(OCC)C(=O)OCC(=O)[C@]1(O)Cc2c(O)c3c(c(O)c2[C@@H](OC2CC(N)C(O)C(C)O2)C1)C(=O)c1c(OC)cccc1C3=O` (stereo partly specified), the T/C reads like this: (endpoint: mean survival time, dose: 0.13 mg/kg/injection, schedule: Q01DX009 (ip), vehicle: saline) 104 % of control; (endpoint: mean survival time, dose: 0.25 mg/kg/injection, schedule: Q01DX009 (ip), vehicle: saline) 118 % of control and 107 % of control; (endpoint: mean survival time, dose: 0.5 mg/kg/injection, schedule: Q01DX009 (ip), vehicle: saline) 110 % of control; (endpoint: mean survival time, dose: 1.0 mg/kg/injection, schedule: Q01DX009 (ip), vehicle: saline) 174 % of control; (endpoint: mean survival time, dose: 2.0 mg/kg/injection, schedule: Q01DX009 (ip), vehicle: saline) 160 % of control; (endpoint: mean survival time, dose: 4.0 mg/kg/injection, schedule: Q01DX009 (ip), vehicle: saline) 104 % of control.
Take `CC(=O)N(C)N=Nc1ccc(F)cc1`: the T/C is 105 % of control under setting [3]; 102 % of control under setting [4]; 105 % of control (endpoint: mean survival time, dose: 100.0 mg/kg/injection, schedule: Q04DX003 (ip), vehicle: Klucel (hydroxypropylcellulose) (HPC)); 105 % of control (endpoint: mean survival time, dose: 200.0 mg/kg/injection, schedule: Q04DX003 (ip), vehicle: Klucel (hydroxypropylcellulose) (HPC)).
On to `CCC(C(=O)O)c1ccccc1` (stereo unspecified), for which the T/C (endpoint: mean survival time, dose: 100.0 mg/kg/injection, schedule: Q04DX003 (ip), vehicle: saline sonified) is 97 % of control and the T/C (endpoint: mean survival time, dose: 200.0 mg/kg/injection, schedule: Q04DX003 (ip), vehicle: saline sonified) was 101 % of control.
For `O=C1OC(=O)C2CCCC1C2`, the T/C reads like this: under setting [5], 105 % of control; (endpoint: mean survival time, dose: 200.0 mg/kg/injection, schedule: Q01DX001 (ip), vehicle: saline) 105 % of control; (endpoint: mean survival time, dose: 400.0 mg/kg/injection, schedule: Q01DX001 (ip), vehicle: saline) 100 % of control.
As for `CN(C)Cc1cc(CN(C)C)c(O)c(CN(C)C)c1`, the T/C runs as follows: under setting [6], 107 % of control; under setting [7], 100 % of control.
Take `CC(C)NC(=O)CCSCCC(=O)NC(C)C`: the T/C is, setting by setting: (endpoint: mean survival time, dose: 25.0 mg/kg/injection, schedule: Q04DX002 (ip), vehicle: other) 89 % of control; (endpoint: mean survival time, dose: 50.0 mg/kg/injection, schedule: Q04DX002 (ip), vehicle: other) 93 % of control; (endpoint: mean survival time, dose: 100.0 mg/kg/injection, schedule: Q04DX002 (ip), vehicle: other) 97 % of control; (endpoint: mean survival time, dose: 200.0 mg/kg/injection, schedule: Q04DX002 (ip), vehicle: other) 89 % of control.
In the case of `COC(=O)c1cccn1C(=O)c1ccccc1N`, the T/C reads like this: (endpoint: mean survival time, dose: 100.0 mg/kg/injection, schedule: Q04DX002 (ip), vehicle: saline with Tween-80) 96 % of control; (endpoint: mean survival time, dose: 200.0 mg/kg/injection, schedule: Q04DX002 (ip), vehicle: saline with Tween-80) 93 % of control; (endpoint: mean survival time, dose: 400.0 mg/kg/injection, schedule: Q04DX002 (ip), vehicle: saline with Tween-80) 100 % of control.
On to `CSC1=NCCN1`, for which the T/C by setting is: under setting [6], 97 % of control; under setting [7], 97 % of control; (endpoint: mean survival time, dose: 400.0 mg/kg/injection, schedule: Q04DX003 (ip), vehicle: saline) 91 % of control.
On to `CC1(CC(C)(C)C2CCCCC2)OCCO1`, for which the T/C is, setting by setting: (endpoint: mean survival time, dose: 25.0 mg/kg/injection, schedule: Q01DX009 (ip), vehicle: Klucel (hydroxypropylcellulose) (HPC)) 93 % of control; (endpoint: mean survival time, dose: 50.0 mg/kg/injection, schedule: Q01DX009 (ip), vehicle: Klucel (hydroxypropylcellulose) (HPC)) 95 % of control; (endpoint: mean survival time, dose: 100.0 mg/kg/injection, schedule: Q01DX009 (ip), vehicle: Klucel (hydroxypropylcellulose) (HPC)) 91 % of control.
Regarding `CCOC(=O)c1[nH]c(=S)[nH]c1C(=O)OCC`, under setting [5], the T/C is 100 % of control.
`O=c1cc(-c2ccccc2)[nH]c(=S)[nH]1`: the T/C under setting [8] is 115 % of control, the T/C under setting [9] is 102 % of control and the T/C under setting [10] was 97 % of control.
As for `CCCCS(=O)C(Cl)(CCC)C(C)(C)O` (stereo unspecified), the T/C runs as follows: under setting [1], 97 % of control; (endpoint: mean survival time, dose: 200.0 mg/kg/injection, schedule: Q04DX003 (ip), vehicle: saline with Tween-80) 93 % of control; (endpoint: mean survival time, dose: 400.0 mg/kg/injection, schedule: Q04DX003 (ip), vehicle: saline with Tween-80) 97 % of control.
As for `COC(=O)[C@@H]1[C@@H](O)[C@H](OC(=O)c2cc(OC)c(OC)c(OC)c2)C[C@@H]2CN3CCc4c([nH]c5ccccc45)[C@H]3C[C@@H]21`, the T/C (endpoint: mean survival time, dose: 1.56 mg/kg/injection, schedule: Q01DX009 (ip), vehicle: saline sonified) is 93 % of control; the T/C (endpoint: mean survival time, dose: 3.13 mg/kg/injection, schedule: Q01DX009 (ip), vehicle: saline sonified) is 95 % of control; the T/C (endpoint: mean survival time, dose: 6.25 mg/kg/injection, schedule: Q01DX009 (ip), vehicle: saline sonified) was 102 % of control; the T/C under setting [2] was 103 % of control; the T/C (endpoint: mean survival time, dose: 25.0 mg/kg/injection, schedule: Q04DX003 (ip), vehicle: saline with Tween-80) was 103 % of control; the T/C (endpoint: mean survival time, dose: 50.0 mg/kg/injection, schedule: Q04DX003 (ip), vehicle: saline with Tween-80) is 103 % of control.
With `CC(C)(C)NCC(CN(CC(CNC(C)(C)C)C(=O)c1ccccc1)C(C)(C)C)C(=O)c1ccccc1` (stereo unspecified), the T/C (endpoint: mean survival time, dose: 12.5 mg/kg/injection, schedule: Q04DX003 (ip), vehicle: Klucel (hydroxypropylcellulose) (HPC)) is 98 % of control; the T/C under setting [3] is 96 % of control; the T/C under setting [4] is 102 % of control.
For `CC(=O)NC(Cc1ccccc1)c1ccccc1` (stereo unspecified), the T/C under setting [8] was 112 % of control, the T/C under setting [9] is 105 % of control and the T/C under setting [10] was 86 % of control.
In the case of `CCOC(=O)Nc1cc2c(c(N)n1)NC(CN(C)c1ccccc1)CN2` (stereo unspecified), the T/C reads like this: (endpoint: mean survival time, dose: 100.0 mg/kg/injection, schedule: Q01DX001 (ip), vehicle: Klucel (hydroxypropylcellulose) (HPC)) 94 % of control; (endpoint: mean survival time, dose: 200.0 mg/kg/injection, schedule: Q01DX001 (ip), vehicle: Klucel (hydroxypropylcellulose) (HPC)) 103 % of control; (endpoint: mean survival time, dose: 400.0 mg/kg/injection, schedule: Q01DX001 (ip), vehicle: Klucel (hydroxypropylcellulose) (HPC)) 110 % of control.
Turning to `Brc1ccccc1C=C1c2ccccc2-c2ccccc21`, the T/C under setting [11] was 100 % of control, the T/C under setting [12] was 102 % of control and the T/C under setting [13] is 106 % of control.
For `O=C(O)CCN1CCS(=O)(=O)C1=S`, the T/C reads like this: (endpoint: mean survival time, dose: 75.0 mg/kg/injection, schedule: Q01DX001 (ip), vehicle: other) 101 % of control; (endpoint: mean survival time, dose: 150.0 mg/kg/injection, schedule: Q01DX001 (ip), vehicle: other) 95 % of control; (endpoint: mean survival time, dose: 300.0 mg/kg/injection, schedule: Q01DX001 (ip), vehicle: other) 104 % of control.
Turning to `CC(=O)NC(CO)C(O)c1ccc(N)cc1` (stereo unspecified), the T/C runs as follows: under setting [8], 97 % of control; under setting [11], 102 % of control; under setting [9], 101 % of control; under setting [12], 96 % of control; under setting [10], 104 % of control; under setting [13], 96 % of control.
